This note sets out measurements from patent US20250108100A1, “C-TERMINAL FRAGMENT OF APOLIPOPROTEIN E AND APPLICATION THEREOF IN INHIBITING y-SECRETASE ACTIVITY” (SYNPHATEC (SHANGHAI) BIOPHARMACEUTICAL TECHNOLOGY CO., LTD., priority 2022, published 2025).

“Also recorded” adds a separate entry of the source.

One data set deals with 5×FAD mice. The data set can be described thus: Distribution of neuronally expressed ApoE around amyloid plaques in 5×FAD mice (immunofluorescence). The data set is classed as in vivo, mouse. Particulars: lentiviral vectors. The protocol: Mice were anesthetized with isoflurane and perfused with 4% PFA. Dissected mouse brains were fixed overnight in 4% PFA and cryoprotected overnight in 30% sucrose. A cryostat (Leica CM3050S) was used to obtain frozen brain slices ([…]) from fixed and cryoprotected mouse brains. Floating slices were washed 3 times with 1×PBS and then permeabilized with 0.5% Triton-X in 1×PBS for 30 minutes. After blocking with 5% BSA in 1×PBS at room temperature for 1 h, the slices were incubated overnight at 4° C. in 5% BSA (in 1×PBS) buffer comprising the primary antibody. Slices were washed 3 times with 1×PBS and incubated with secondary antibody diluted in 5% BSA (1×PBS) buffer for 1 hour at room temperature. Samples were then washed 3 times with 1×PBS and mounted with Prolong Gold Antifade Mountant (Life Technology).
After being deeply anesthetized with isoflurane, mice (5 weeks old) were placed in a stereotaxic apparatus (RWD Instruments). The zero point (x, y, z, 0, 0, 0) is Bregma. Lentivirus (lentivirus-GFP, lentivirus-ApoE and lentivirus-ApoE-IRES-GFP) and AAV (AAV2/9-hSyn-EGFP-WPRE-pA and AAV2/9-hSyn-ApoECT; purchased from Shanghai Taitool Bioscience Co. Ltd.) were injected into the cortex (x, y, z, +/−1.6, 0, −1) or hippocampus (x, y, z, +/−1.5, −2, −1.5), injected 1 ul on each injection site. The mice were then returned to their cages for rehabilitation after surgery.

For data set [1], the system named is primary cultured mouse hippocampal or cortical neurons. The data set can be described thus: Endogenous Aβ40 in primary cultured mouse cortical or hippocampal neurons (lentivirus, ELISA). The data set is classed as cell-based. Particulars: primary cultured mouse neurons; lentivirus; vs GFP control. The method, then: Primary cultured neurons were derived from the cortex or hippocampus of 16-day embryonic mice. The mouse cortex or hippocampus was obtained under a stereoscope, and was digested at 37° C. for 10 minutes with 20 U/ml papain (Worthington Company). After digestion, the neurons that exist in single-cell form were seeded with 100,000 neurons per well (24-well plate); the neurons were cultured in the neuron culture medium (Neurobasal medium; ThermoFisher Company) containing 2% B27 (ThermoFisher Company) and 1% penicillin/streptomycin; the fresh culture medium was changed once a week.
The experiment was performed according to the standard procedure in the ELISA analysis kit of Invitrogen Company. • a) The target protein was expressed in HEK 293T cell line. Cells were subcultured one day before transfection, and transfection was performed when the degree of cell adhesion reached 70%-80%. […]
48 hours after transfection of HEK 293T cells and N2A cells, or 4.5 days after lentivirus infection of neurons, media and lysates were collected. Aβ40 and Aβ42 in the culture medium and cell lysates were detected by an Aβ ELISA kit as indicated in the protocol. […]
On the technique in general: In an ELISA, binding on a coated surface is turned into a signal by an enzyme label.

The subject of data set [2] is human APP and β-secretase co-expressed in HEK 293T cells. The data set can be described thus: HEK 293T cells co-expressing APP and β-secretase (BACE1): Aβ ELISA and β-CTF Western blot. The data set is classed as cell-based. Particulars: APP and β-secretase co-expressed, ELISA, vs GFP control. The method, then: The experiment was performed according to the standard procedure in the ELISA analysis kit of Invitrogen Company. • a) The target protein was expressed in HEK 293T cell line. Cells were subcultured one day before transfection, and transfection was performed when the degree of cell adhesion reached 70%-80%. The transfection reagent was lipofectamine2000 (ThermoFisher). • b) 4-6 hours post transfection, medium were replaced with fresh cell culture medium. • c) 36-48 hours post transfection, the cell culture medium was collected, and then the ELISA process was performed or the cell culture medium was frozen in a −80° C. refrigerator. • d) 50 μl of standard samples and experimental samples were added to each well of the 96-well plate. • e) 50 μl of human-derived Aβ40 or Aβ42 or mouse-derived Aβ40 detection antibody was added to each well of the 96-well plate. • f) The above samples were shaken gently and placed at room temperature for 3 hours. • g) The liquid in the well were removed, and the plate was washed 4 times with 1× wash buffer. • h) 100 μl of the buffer containing 1× anti-Rabbit IgG HRP was added. • i) The plate was shaken gently and placed at room temperature for […]. • j) The liquid in the well were removed, and the well was washed 4 times with 1× wash buffer. • k) 100 μl of Stabilized Chromogen was added to each well, and the plate was placed in the dark for 30 minutes at room temperature. • l) 100 μl of Stop Solution was added to each well. • m) The absorbance at 450 nm was measured with a microplate reader. 2.4 qRT-PCR
48 hours after transfection of HEK 293T cells and N2A cells, or 4.5 days after lentivirus infection of neurons, media and lysates were collected. Aβ40 and Aβ42 in the culture medium and cell lysates were detected by an Aβ ELISA kit as indicated in the protocol. (Invitrogen Technology; KHB3481 for human Aβ40, KHB3441 for human Aβ42 and KMB3481 for mouse Aβ40).
Data were analyzed by GraphPad Prism software (v6) using unpaired, paired, or one-sample t-tests. Aβ40 and Aβ42 levels were normalized to the corresponding GFP controls. α-CTF levels were normalized to FL-APP and corresponding GFP controls. All data are represented as mean±SEM. Statistical significance was defined as p<0.05. One, two, three and four stars (*) in the graph indicate p-values <0.05, <0.01, <0.001 and <0.0001, respectively.

Data set [3] is described as follows: Stability of ApoE2 in conditioned culture medium (Western blot). It counts as physicochemical. The following applies: 37° C.; 48 hours. The method, then:
N=9. […] The original ApoE2-containing culture medium (lane 1), the ApoE2-containing culture medium after incubation with untransfected cells for 48 hours (lane 2), and the ApoE2-containing culture medium separately stored in a 37° C. incubator for 48 hours (lane 3). […] DAPI, nuclear marker. […] MAP2, marker of mature neurons; DAPI, nuclear marker.
(In western blotting, separated proteins are transferred to a membrane and probed.)

The test system of the next data set is wild-type mice. The data set is described as follows: Endogenous Aβ40 in brain of wild-type mice after AAV neuronal expression (ELISA). The data set is classed as in vivo, mouse. Particulars: hSyn promoter, vs GFP.

“ApoE2: human apolipoprotein E2, full-length 299 amino acid residues, SEQ ID NO: 12”: in the data set with 5×FAD mice, the “accumulation around amyloid plaques” value is “a similar distribution pattern was detected around amyloid plaques”. For the same substance, the “endogenously produced Aβ40” value in data set [1] is listed as “can reduce endogenously produced Aβ40; also recorded: could reduce the endogenous Aβ40”. For the same substance, in data set [2], the “production of Aβ40” value is given as “significantly reduces production of Aβ40; also recorded: is reduced; also recorded: significantly reduced Aβ40 levels”. The “stability in conditioned medium” value in data set [3] is on record as “can exist stably”. The “endogenous Aβ40 in the brain” value with wild-type mice is reported as “also reduce endogenous Aβ40 production; also recorded: reduced endogenous Aβ40 in the brain of mice”.
